From paper PMC2216945 (The Journal of General Physiology, 1995) come the findings set out here.

The experiment addresses cystic fibrosis transmembrane conductance regulator (CFTR) (Homo sapiens, UniProt P13569). Briefly: inside-out patch clamp, inhibition of ATP-dependent channel open probability. Format: cell-based. Background: The patch-clamp technique gives a direct electrical read-out from membranes.

Sequence of cystic fibrosis transmembrane conductance regulator (CFTR) (P13569 whole entry): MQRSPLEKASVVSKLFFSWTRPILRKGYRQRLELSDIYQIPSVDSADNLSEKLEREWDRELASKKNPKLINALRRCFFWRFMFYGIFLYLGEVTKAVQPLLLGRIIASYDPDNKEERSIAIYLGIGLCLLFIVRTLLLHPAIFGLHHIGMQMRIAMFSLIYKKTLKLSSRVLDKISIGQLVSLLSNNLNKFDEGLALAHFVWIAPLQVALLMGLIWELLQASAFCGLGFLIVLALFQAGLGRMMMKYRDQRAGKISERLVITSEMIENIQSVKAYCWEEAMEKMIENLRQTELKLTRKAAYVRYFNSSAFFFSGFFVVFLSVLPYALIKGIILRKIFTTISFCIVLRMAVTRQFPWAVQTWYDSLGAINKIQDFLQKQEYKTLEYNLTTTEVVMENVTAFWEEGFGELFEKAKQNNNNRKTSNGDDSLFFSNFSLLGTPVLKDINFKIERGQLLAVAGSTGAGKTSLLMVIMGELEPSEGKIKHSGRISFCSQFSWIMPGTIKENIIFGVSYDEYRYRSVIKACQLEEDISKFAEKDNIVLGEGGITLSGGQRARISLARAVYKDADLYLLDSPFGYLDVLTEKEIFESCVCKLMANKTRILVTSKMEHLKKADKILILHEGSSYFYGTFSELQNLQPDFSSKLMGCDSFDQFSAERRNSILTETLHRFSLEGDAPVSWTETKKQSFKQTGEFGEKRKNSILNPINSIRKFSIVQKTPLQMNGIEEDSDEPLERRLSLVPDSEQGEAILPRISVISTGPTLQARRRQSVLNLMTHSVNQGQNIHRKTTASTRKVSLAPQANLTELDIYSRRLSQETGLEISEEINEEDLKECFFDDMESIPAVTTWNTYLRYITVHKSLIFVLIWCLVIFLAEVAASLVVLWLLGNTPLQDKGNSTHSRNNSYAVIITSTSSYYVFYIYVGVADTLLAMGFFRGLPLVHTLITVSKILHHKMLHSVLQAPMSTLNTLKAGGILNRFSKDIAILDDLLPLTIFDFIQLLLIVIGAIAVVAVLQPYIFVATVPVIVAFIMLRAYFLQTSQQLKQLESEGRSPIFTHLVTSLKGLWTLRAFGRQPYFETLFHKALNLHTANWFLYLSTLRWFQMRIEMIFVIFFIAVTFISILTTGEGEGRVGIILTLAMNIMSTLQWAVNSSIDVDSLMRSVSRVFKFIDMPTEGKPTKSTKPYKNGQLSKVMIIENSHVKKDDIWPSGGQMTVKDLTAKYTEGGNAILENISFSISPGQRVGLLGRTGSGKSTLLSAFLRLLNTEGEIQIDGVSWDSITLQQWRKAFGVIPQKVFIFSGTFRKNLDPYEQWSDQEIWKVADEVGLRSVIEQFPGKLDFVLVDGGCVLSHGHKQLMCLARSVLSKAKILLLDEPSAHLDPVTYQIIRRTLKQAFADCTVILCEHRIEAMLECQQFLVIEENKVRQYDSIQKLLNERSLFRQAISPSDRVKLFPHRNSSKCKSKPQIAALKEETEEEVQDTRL

In general, Ki refers to a dissociation constant, usually derived from enzyme kinetics or from competition with a known ligand. Read a high Ki as lower affinity. In turn, `Nc1ncnc2c1ncn2[C@@H]1O[C@H](COP(=O)(O)OP(=O)(O)O)[C@@H](O)[C@H]1O` [ADP] gave a Ki of 16 ± 9 µM.
